The values below come from patent US8354451B2, “Treatment of microbial infections with compounds that inhibit 4-hydroxyphenylpyruvate dioxygenase” (The UWM Research Foundation, Inc., priority 2009, dated 2013).

Molecules are shown by their SMILES.

Common to all, as to assay type: cell-based, Burkholderia cenocepacia
Test [1] relates to B. cenocepacia C5424 and MH1J. The test can be described thus: Growth rate, BIOSCREEN growth curve analysis. Conditions: 10 μM and 100 μM NTBC, OD600 over 24 h. On the procedure: FIG. 2. Effect of NTBC on growth and viability of B. cenocepacia. B. cenocepacia C5424 (upper graph) and MH1J (lower graph) were cultured in 300 ml of LB by triplicates. Cultures were started at an OD600 of 0.1 and OD600 readings were taken every 30 min over 24 h using the BIOSCREEN® system.
To assess growth rate, overnight cultures were inoculated into fresh medium with a starting optical density at 600 (OD600) of 0.1. Growth rates were determined in 100-well microtiter plates by use of a BIOSCREEN® C automated microbiology growth curve analysis system (MTX Lab Systems, Inc., Vienna, Va.) under high-amplitude shaking conditions.
(§1) B. cenocepacia C5424 and MH1J were cultured in the presence of 10 μM and 100 μM NTBC and assayed for growth rates using the BIOSCREEN® system (FIG. 2). Bacterial viability was examined under similar treatment conditions by fluorescence microscopy using the LIVE/DEAD® kit (Molecular Probes, Invitrogen).

The next test has as its system B. cenocepacia MH1J. The test can be described thus: Pigment (pyomelanin) production, supernatant OD597. Conditions: 24 h culture. On the procedure:
FIG. 1. NTBC decreases pigment production in B. cenocepacia. B. cenocepacia strains C5424 and MH1J were cultured in presence or absence of NTBC in flasks during 24 h. An aliquot of this culture was used to take the picture in A. To quantify pigment production, 1 ml of culture was centrifuged at 14,000 rpm by 5 min to pellet bacteria. The pigment in the supernatant was quantified at an OD597 nm. The graphic (B) was generated with the results of two independent experiments. Values represent the mean±SD of two independent experiments. ***, p<0.001, Mock (untreated) versus treated with 10 and 100 μM of NTBC.
To test the ability of NTBC 2-[2-nitro-4-(trifluoromethyl)benzoyl]-1,3-cyclohexanedione (NTBC) to decrease pigment production by Burkholderia cenocepacia strains, two strains with the ability to produce pigment were used: (i) the previously described B. cenocepacia C5424, and (ii) B. cenocepacia MH1J, strain with susceptibility to gentamicin.
Bacteria were grown in 10 ml of Luria-Bertani (LB) broth at 37° C. with shaking, using 250 mL-flasks. B. cenocepacia C5424 produced significant pigment at 24 h of culture and MH1J required 48 h to form high pigment production. To quantify the pigment produced by both strains a 1 mL culture was taken at 24 hrs of incubation and the bacteria were pelleted by centrifugation at 14,000 r.p.m. for 5 min. […]

For test [2], the system named is B. cenocepacia C5424 and MH1J. Kind of test: Bacterial viability, LIVE/DEAD fluorescence microscopy. As to conditions: 10 μM and 100 μM NTBC, 24 h culture. On the procedure:
Viability was tested by the LIVE/DEAD® method (Molecular probes, Invitrogen). 1 mL of bacterial culture was collected at 24 h, washed twice with phosphate buffered saline (PBS), and the pellet resuspended in 1 mL of Dubecco's modified Eagle's medium (DMEM) supplemented with 10% fetal bovine serum (FBS). Bacteria were incubated for 15 min at RT in the dark, 5 mL of the culture was used for fluorescence microscopy. Images were acquired using a QIMAGING® (Burnaby, British Columbia, Canada) cooled charge coupled-device camera on an Axioscope 2 (Carl Zeiss, Thornwood, N.Y.) microscope with an X100/1.3 numerical aperture Plan-Neofluor objective and a 50-W mercury arc lamp. Images were digitally processed using the Northern Eclipse version 6.0 imaging analysis software (Empix Imaging, Mississauga, Ontario, Canada).
as §1

As for `O=C1CCCC(=O)C1C(=O)c1ccc(C(F)(F)F)cc1[N+](=O)[O-]` [NTBC, 2-(2-nitro-4-trifluoromethylbenzoyl)-1,3-cyclohexanedione], in test [1], the “effect on growth rate” value was “does not affect growth rate”. Also, the entries for the “pigment production relative to untreated MH1J” value in the test with B. cenocepacia MH1J (10 μM NTBC) and in the test on B. cenocepacia MH1J (100 μM NTBC) were 31.53±3.08% and 36.41±1.80%, respectively. In addition, in test [2], the effect on viability result is recorded as “does not affect growth rate or viability”.
